#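 Assay format: 96-well plates, 48-hour exposure. GI50 is the concentration that inhibits growth by half. TGI: concentration producing complete growth inhibition.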
# Columns and labels:
# Assay in all cases: NCI tumour cell line growth inhibition, 48 h
# SF-295 CNS = test system: SF-295 CNS
# SW-620 colon = test system: SW-620 colon
# U251 CNS = test system: U251 CNS
# IGROV1 ovarian = test system: IGROV1 ovarian
# HCT-116 colon = test system: HCT-116 colon
# RXF 393 renal = test system: RXF 393 renal
# SNB-19 CNS = test system: SNB-19 CNS
# DU-145 prostate = test system: DU-145 prostate
# OVCAR-5 ovarian = test system: OVCAR-5 ovarian
# T-47D breast = test system: T-47D breast
# MOLT-4 leukemia = test system: MOLT-4 leukemia
# HS 578T breast = test system: HS 578T breast
# NCI-H23 lung = test system: NCI-H23 lung
# HOP-92 NSCLC = test system: HOP-92 NSCLC
# NCI-H460 lung = test system: NCI-H460 lung
# KM12 colon = test system: KM12 colon
# NCI-H226 lung = test system: NCI-H226 lung
# K-562 leukemia = test system: K-562 leukemia
# HL-60(TB) leukemia = test system: HL-60(TB) leukemia
# SR leukemia = test system: SR leukemia
# MALME-3M melanoma = test system: MALME-3M melanoma
# PC-3 prostate = test system: PC-3 prostate
# OVCAR-4 ovarian = test system: OVCAR-4 ovarian
# 786-0 renal = test system: 786-0 renal
# LOX IMVI melanoma = test system: LOX IMVI melanoma
# CAKI-1 renal = test system: CAKI-1 renal
# HCT-15 colon = test system: HCT-15 colon
# BT-549 breast = test system: BT-549 breast
# A549 NSCLC = test system: A549 NSCLC
smiles,measurement,setting,value
CN(C(=O)c1ccc(C(F)(F)F)cc1C(F)(F)F)c1sc2c(c1C#N)CCC(=O)C2,GI50,SF-295 CNS,12.3 µM
same,TGI,SF-295 CNS,25.6 µM
same,GI50,SW-620 colon,3.22 µM
same,TGI,SW-620 colon,12.3 µM
same,GI50,U251 CNS,1.98 µM
same,TGI,U251 CNS,4.68 µM
same,GI50,IGROV1 ovarian,11.3 µM
same,TGI,IGROV1 ovarian,25.7 µM
same,GI50,HCT-116 colon,3.65 µM
same,TGI,HCT-116 colon,14.4 µM
same,GI50,RXF 393 renal,2.74 µM
same,TGI,RXF 393 renal,10.1 µM
same,GI50,SNB-19 CNS,12.4 µM
same,TGI,SNB-19 CNS,26.8 µM
same,GI50,DU-145 prostate,17.3 µM
same,TGI,DU-145 prostate,31.3 µM
same,GI50,OVCAR-5 ovarian,21.3 µM
same,TGI,OVCAR-5 ovarian,39.6 µM
same,GI50,T-47D breast,4.43 µM
same,TGI,T-47D breast,30.4 µM
same,GI50,MOLT-4 leukemia,4.13 µM
same,TGI,MOLT-4 leukemia,27.8 µM
same,GI50,HS 578T breast,3.92 µM
same,TGI,HS 578T breast,28.7 µM
same,GI50,NCI-H23 lung,6.94 µM
same,TGI,NCI-H23 lung,22.8 µM
same,GI50,HOP-92 NSCLC,5.35 µM
same,TGI,HOP-92 NSCLC,19.3 µM
same,GI50,NCI-H460 lung,17.2 µM
same,TGI,NCI-H460 lung,33.2 µM
same,GI50,KM12 colon,4.25 µM
same,TGI,KM12 colon,17.5 µM
same,GI50,NCI-H226 lung,16.7 µM
same,TGI,NCI-H226 lung,40.9 µM
same,GI50,K-562 leukemia,2.7 µM
same,TGI,K-562 leukemia,> 100 µM
same,GI50,HL-60(TB) leukemia,3.33 µM
same,TGI,HL-60(TB) leukemia,25.6 µM
same,GI50,SR leukemia,2.64 µM
same,TGI,SR leukemia,11 µM
same,GI50,MALME-3M melanoma,18.1 µM
same,TGI,MALME-3M melanoma,36.1 µM
same,GI50,PC-3 prostate,2.69 µM
same,TGI,PC-3 prostate,6.93 µM
same,GI50,OVCAR-4 ovarian,3 µM
same,TGI,OVCAR-4 ovarian,10.3 µM
same,GI50,786-0 renal,15.7 µM
same,TGI,786-0 renal,34.7 µM
same,GI50,LOX IMVI melanoma,4.09 µM
same,TGI,LOX IMVI melanoma,15.5 µM
same,GI50,CAKI-1 renal,7.01 µM
same,TGI,CAKI-1 renal,21.1 µM
same,GI50,HCT-15 colon,3.09 µM
same,TGI,HCT-15 colon,11.6 µM
same,GI50,BT-549 breast,2.82 µM
same,TGI,BT-549 breast,8.29 µM
same,GI50,A549 NSCLC,18.1 µM
same,TGI,A549 NSCLC,41.8 µM
